Assay [1] concerns the target human D2L receptor (Homo sapiens, UniProt P14416). The experiment in a line: Dopamine D2L receptor binding assay ([3H]-spiperone). The note with it: 10 nM test drug; [3H]-spiperone 0.5 nM; human D2L receptor-expressing CHO cell membrane; read-out: BINDING INHIBITION RATE (%) D2L 10 nM. The protocol:
(1) Dopamine D2L Receptor Binding Assay
D2L receptor binding assay was performed in reference to a method described by Hirose et al. (Japan. J. Pharmacol., 53, 321-329, 1990). After a reaction in a total volume of 200 μL of 50 mM Tris-HCl (pH=7.6) buffer solution containing 50 μL of [^3H]-spiperone (final concentration 0.5 nM), 1 μL of test drug in DMSO, and 149 μL of human D2L receptor-expressing CHO cell membrane sample, human D2L receptor binding activity of [^3H]-spiperone was measured. The reaction solution let stand for 60 minutes at room temperature, and then it was quickly added on a glass fiber filter plate (Multiscreen FB, Millipore inc.) coated with 0.3% polyethyleneimine (PEI) and filtered under reduced pressure. The glass fiber filter was washed with 200 μL of ice-cooled 50 mM Tris-HCl (pH=7.6) twice, repeatedly filtered under reduced pressure, and then transferred to a vial containing 4 mL of Ecoscint A (National Diagnostics inc.). The residual radioactivity on the glass fiber filter was measured by a liquid scintillation counter. Nonspecific binding was measured in the presence of 10 μM of spiperone, and [^3H]-spiperone binding inhibition rate in the presence of 10 nM of test drug was determined. The larger binding inhibition rate (%) means that test drug has the higher binding affinity for human D2L receptor.

The target in assay [2] is T1, human 5-HT2A receptor (Homo sapiens, UniProt P28223).
T1 construct: expressed in transfected cells; host or cells: CHO cells (membrane preparation)
The experiment in a line: Serotonin 5-HT2A receptor binding assay ([3H]-ketanserin). The note with it: [3H]-ketanserin 1 nM, human 5-HT2A receptor-expressing CHO cell membrane; for inhibition at 0.001 µM: 1 nM test drug, read-out: BINDING INHIBITION RATE (%) 5HT2A 1 nM; for inhibition at 0.01 µM: 10 nM test drug, read-out: BINDING INHIBITION RATE (%) 5HT2A 10 nM. The protocol:
(2) Serotonin 5-HT2A Receptor Binding Assay
5-HT2A receptor binding assay was performed in reference to a method described by Hirose et al. (Japan. J. Pharmacol., 53, 321-329, 1990). After a reaction in a total volume of 200 μL of 50 mM Tris-HCl (pH=7.6) buffer solution containing 50 μL of [^3H]-ketanserin (final concentration 1 nM), 1 μL of test drug in DMSO, and 149 μL of human 5-HT2A receptor-expressing CHO cell membrane sample, human 5-HT2A receptor binding activity of [^3H]-ketanserin was measured. The reaction solution let stand for 15 minutes at 37° C., and then it was quickly added on a glass fiber filter plate (Multiscreen FB, Millipore inc.) coated with 0.05% Brij 35 and filtered under reduced pressure. The glass fiber filter was washed with 200 μL of ice-cooled 50 mM Tris-HCl (pH=7.6) twice, repeatedly filtered under reduced pressure, and then transferred to a vial containing 4 mL of Ecoscint A (National Diagnostics inc.). The residual radioactivity on the glass fiber filter was measured by a liquid scintillation counter. Nonspecific binding was measured in the presence of 10 μM of MDL-100907, and [^3H]-ketanserin binding inhibition rate in the presence of 1 nM or 10 nM of test drug was determined.

For assay [3], the target named is T2, human α1D receptor (Homo sapiens, UniProt P25100).
T2 construct: expressed in transfected cells; host or cells: CHO cells (membrane preparation)
T2 sequence (P25100 1-572): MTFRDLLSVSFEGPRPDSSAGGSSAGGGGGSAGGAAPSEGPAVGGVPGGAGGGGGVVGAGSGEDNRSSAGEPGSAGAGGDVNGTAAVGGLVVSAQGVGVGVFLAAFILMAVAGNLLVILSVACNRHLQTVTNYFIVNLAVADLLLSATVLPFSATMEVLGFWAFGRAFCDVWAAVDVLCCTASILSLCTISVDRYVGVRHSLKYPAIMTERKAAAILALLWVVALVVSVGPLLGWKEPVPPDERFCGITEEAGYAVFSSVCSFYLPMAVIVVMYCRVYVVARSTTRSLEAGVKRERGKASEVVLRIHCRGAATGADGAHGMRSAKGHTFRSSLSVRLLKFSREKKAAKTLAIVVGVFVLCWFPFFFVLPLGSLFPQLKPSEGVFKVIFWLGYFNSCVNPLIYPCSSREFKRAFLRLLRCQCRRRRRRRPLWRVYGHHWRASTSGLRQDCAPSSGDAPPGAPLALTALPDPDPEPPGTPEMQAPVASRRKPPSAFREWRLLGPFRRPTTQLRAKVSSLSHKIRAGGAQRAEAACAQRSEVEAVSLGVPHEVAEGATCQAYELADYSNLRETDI
Kind of assay: Adrenaline α1D receptor binding assay ([3H]-prazosin). The note with it: 100 nM test drug; [3H]-prazosin 0.6 nM; human α1D receptor-expressing CHO cell membrane; read-out: BINDING INHIBITION RATE (%) α1D 100 nM. The protocol:
(4) Adrenaline α1D Receptor Binding Assay
After a reaction in a total volume of 200 μL of 50 mM Tris-HCl (pH=7.6) buffer solution containing 50 μL of [^3H]-prazosin (final concentration 0.6 nM), 1 μL of test drug in DMSO, and 149 μL of human α1D receptor-expressing CHO cell membrane sample, human α1D receptor binding activity of [^3H]-prazosin was measured. The reaction solution let stand for 30 minutes at room temperature, and then it was quickly added on a glass fiber filter plate (Multiscreen FB, Millipore inc.) coated with 0.3% polyethyleneimine (PEI) and filtered under reduced pressure. The glass fiber filter was washed with 200 μL of ice-cooled 50 mM Tris-HCl (pH=7.6) twice, repeatedly filtered under reduced pressure, and then transferred to a vial containing 4 mL of Ecoscint A (National Diagnostics inc.). The residual radioactivity on the glass fiber filter was measured by a liquid scintillation counter. Nonspecific binding was measured in the presence of 1 μM of prazosin, and [^3H]-prazosin binding inhibition rate in the presence of 100 nM of test drug was determined.

Assay [4] concerns the target T3, human 5-HT6 receptor (Homo sapiens, UniProt P50406).
T3 construct: expressed in transfected cells; host or cells: CHO cells (membrane preparation)
The experiment in a line: Serotonin 5-HT6 receptor binding assay ([3H]-clozapine). The note with it: 100 nM test drug; [3H]-clozapine 2 nM; human 5-HT6 receptor-expressing CHO cell membrane; read-out: BINDING INHIBITION RATE (%) 5HT6 100 nM. Here is the method:
(3) Serotonin 5-HT6 Receptor Binding Assay
After a reaction in a total volume of 200 μL of 50 mM Tris-HCl (pH=7.6), 4 mM CaCl2, and 0.5 mM EDTA buffer solution containing 50 μL of [^3H]-clozapine (final concentration 2 nM), 1 μL of test drug in DMSO, and 149 μL of human 5-HT6 receptor-expressing CHO cell membrane sample, human 5-HT6 receptor binding activity of [^3H]-clozapine was measured. The reaction solution let stand for 40 minutes at room temperature, and then it was quickly added on a glass fiber filter plate (Multiscreen FB, Millipore inc.) coated with 0.3% polyethyleneimine (PEI) and filtered under reduced pressure. The glass fiber filter was washed with 200 μL of ice-cooled 50 mM Tris-HCl (pH=7.6) twice, repeatedly filtered under reduced pressure, and then transferred to a vial containing 4 mL of Ecoscint A (National Diagnostics inc.). The residual radioactivity on the glass fiber filter was measured by a liquid scintillation counter. Nonspecific binding was measured in the presence of 10 μM of SB-258585, and [^3H]-clozapine binding inhibition rate in the presence of 100 nM of test drug was determined.

T1 sequence (P28223 whole entry): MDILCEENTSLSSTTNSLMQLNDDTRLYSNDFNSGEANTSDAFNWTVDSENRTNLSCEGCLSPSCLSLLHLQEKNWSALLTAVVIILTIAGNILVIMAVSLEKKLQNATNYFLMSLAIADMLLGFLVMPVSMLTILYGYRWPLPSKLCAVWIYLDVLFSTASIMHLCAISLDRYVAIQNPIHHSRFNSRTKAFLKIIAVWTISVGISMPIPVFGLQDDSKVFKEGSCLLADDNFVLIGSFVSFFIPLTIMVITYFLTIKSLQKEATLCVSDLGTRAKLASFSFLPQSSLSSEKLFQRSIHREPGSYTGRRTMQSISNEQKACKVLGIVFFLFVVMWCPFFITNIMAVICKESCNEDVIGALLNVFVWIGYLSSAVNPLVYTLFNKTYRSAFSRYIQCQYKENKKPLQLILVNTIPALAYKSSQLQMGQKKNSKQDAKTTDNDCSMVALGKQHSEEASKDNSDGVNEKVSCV
human D2L receptor, sequence (P14416 whole entry): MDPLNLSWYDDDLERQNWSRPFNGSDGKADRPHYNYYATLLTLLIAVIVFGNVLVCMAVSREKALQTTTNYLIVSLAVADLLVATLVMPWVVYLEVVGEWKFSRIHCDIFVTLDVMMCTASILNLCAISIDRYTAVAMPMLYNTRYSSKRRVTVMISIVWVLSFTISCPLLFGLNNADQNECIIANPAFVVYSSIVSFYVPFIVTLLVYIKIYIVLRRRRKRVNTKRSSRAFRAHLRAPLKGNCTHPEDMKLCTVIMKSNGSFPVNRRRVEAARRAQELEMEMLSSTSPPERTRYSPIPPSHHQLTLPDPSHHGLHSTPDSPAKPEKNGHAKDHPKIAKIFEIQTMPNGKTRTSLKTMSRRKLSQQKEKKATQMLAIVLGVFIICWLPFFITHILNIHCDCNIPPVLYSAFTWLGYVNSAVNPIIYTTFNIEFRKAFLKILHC
T3 sequence (P50406 whole entry): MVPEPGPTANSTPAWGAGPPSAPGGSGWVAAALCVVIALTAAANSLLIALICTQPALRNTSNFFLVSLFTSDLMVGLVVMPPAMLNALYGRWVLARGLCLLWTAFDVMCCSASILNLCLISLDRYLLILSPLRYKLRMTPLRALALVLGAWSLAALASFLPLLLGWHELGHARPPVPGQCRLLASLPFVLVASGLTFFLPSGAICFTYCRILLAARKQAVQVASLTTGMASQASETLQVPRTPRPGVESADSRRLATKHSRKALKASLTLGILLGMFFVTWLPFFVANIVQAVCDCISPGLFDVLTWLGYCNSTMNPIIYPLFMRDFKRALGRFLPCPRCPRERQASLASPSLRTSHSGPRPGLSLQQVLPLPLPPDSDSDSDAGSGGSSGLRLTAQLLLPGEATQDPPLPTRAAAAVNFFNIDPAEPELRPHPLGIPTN

For `COc1ccc2cc(C(=O)N3CCOC[C@H]3CCN3CCC(c4noc5cc(F)ccc45)CC3)[nH]c2c1` [Example 15], the inhibition at 0.01 µM amounted to 84% in assay [1] and 94% in assay [2]. Also, the inhibition at 0.001 µM in assay [2] stood at 76%. For the same molecule, the figures for the inhibition at 0.1 µM in assay [3] and in assay [4] were 74% and 79%, respectively.

As to `O=C(/C=C/c1ccc2c(c1)OCO2)N1CCC[C@@H](CN2CCC(c3noc4cc(F)ccc34)CC2)C1` [Example 16], the values for the inhibition at 0.01 µM in assay [1] and in assay [2] were 97% and 93%, respectively. In addition, the inhibition at 0.1 µM turned out to be 91% in assay [3] and 87% in assay [4].

With `O=C(/C=C/c1ccc2c(c1)OCO2)N1CCC[C@H](CN2CCC(c3noc4cc(F)ccc34)CC2)C1` [Example 17], the inhibition at 0.01 µM was determined as 84% in assay [1] and 99% in assay [2]. Also, the inhibition at 0.1 µM amounted to 92% in assay [3] and 93% in assay [4].

With `O=C(/C=C/c1ccc2c(c1)OCO2)N1CC[C@H]1CCN1CCC(c2noc3cc(F)ccc23)CC1` [Example 18], the inhibition at 0.01 µM amounted to 54% in assay [1] and 100% in assay [2]. Moreover, the inhibition at 0.1 µM in assay [3] was determined as 102%; in assay [4], 74%.

Take `Cc1ccc2cc(C(=O)N3CCC[C@H]3CCN3CCN(c4noc5cc(F)ccc45)CC3)[nH]c2c1` [Example 21]: the inhibition at 0.01 µM in assay [1] came to 73%. Further, the inhibition at 0.001 µM in assay [2] turned out to be 41%. Further, the inhibition at 0.1 µM in assay [3] is 55%; in assay [4] it was 94%.

With `Cc1ccc2cc(C(=O)N3CCCC[C@H]3CCN3CCN(c4n[nH]c5ccccc45)CC3)[nH]c2c1` [Example 23], the inhibition at 0.01 µM in assay [1] stood at 62%. The inhibition at 0.001 µM in assay [2] is 34%. Moreover, the results for the inhibition at 0.1 µM in assay [3] and in assay [4] were 34% and 75%, respectively.

On to `COc1ccc2[nH]c(C(=O)N3CCCC[C@H]3CCN3CCC(c4coc5ccccc45)CC3)cc2c1` [Example 26], for which the inhibition at 0.01 µM in assay [1] was 77%; in assay [2], 98%. The inhibition at 0.001 µM in assay [2] was 77%. Further, the inhibition at 0.1 µM in assay [3] came to 67%; in assay [4], 65%.

In the case of `Cc1ccc2[nH]c(C(=O)N3CCOC[C@H]3CCN3CCC(c4coc5ccccc45)CC3)cc2c1` [Example 27], the values for the inhibition at 0.01 µM in assay [1] and in assay [2] were 87% and 93%, respectively. Further, the results for the inhibition at 0.1 µM in assay [3] and in assay [4] were 97% and 85%, respectively.

With `O=C(/C=C/c1ccc2c(c1)OCO2)N1CCC[C@H](CN2CCC(c3coc4ccccc34)CC2)C1` [Example 29], the inhibition at 0.01 µM turned out to be 80% in assay [1] and 100% in assay [2]. Further, the inhibition at 0.1 µM in assay [3] turned out to be 92%; in assay [4], 85%.

`COc1ccc2cc(C(=O)N3CCCC[C@H]3CCN3CCC(c4c[nH]c5ccccc45)CC3)[nH]c2c1` [Example 31]: the inhibition at 0.01 µM amounted to 78% in assay [1] and 96% in assay [2]. The inhibition at 0.1 µM in assay [3] was determined as 54%; in assay [4], 88%.

Consider `COc1ccc2cc(C(=O)N3CC[C@H]3CCN3CCC(c4c[nH]c5ccccc45)CC3)[nH]c2c1` [Example 32], for which the inhibition at 0.01 µM in assay [1] stood at 36%; in assay [2], 95%. The inhibition at 0.1 µM in assay [3] was 68%; in assay [4], 97%.

Regarding `O=C(/C=C/c1ccc2c(c1)OCO2)N1CCC[C@H](CN2CCC(c3c[nH]c4ccccc34)CC2)C1` [Example 34], the inhibition at 0.01 µM in assay [1] is 75%; in assay [2], 98%. Further, the inhibition at 0.1 µM in assay [3] came to 93%; in assay [4] it was 86%.

Regarding `COc1ccc2cc(C(=O)N3C[C@H](O)C[C@H]3CCN3CCC(c4c[nH]c5ccccc45)CC3)[nH]c2c1` [Example 35], the inhibition at 0.01 µM amounted to 37% in assay [1] and 89% in assay [2]. Moreover, the inhibition at 0.1 µM came out at 81% in assay [3] and 79% in assay [4].

Consider `CCNC(=O)O[C@@H]1C[C@@H](CCN2CCC(c3c[nH]c4ccccc34)CC2)N(C(=O)c2cc3cc(OC)ccc3[nH]2)C1` [Example 36], for which the inhibition at 0.01 µM in assay [1] worked out at 48%; in assay [2] it was 87%. Besides, the values for the inhibition at 0.1 µM in assay [3] and in assay [4] were 75% and 86%, respectively.

For `COc1ccc2[nH]c(C(=O)N3C[C@@](C)(O)C[C@H]3CCN3CCC(c4c[nH]c5ccccc45)CC3)cc2c1` [Example 38], the inhibition at 0.01 µM in assay [1] amounted to 72%; in assay [2] it was 97%. The inhibition at 0.1 µM worked out at 67% in assay [3] and 86% in assay [4].

On to `Cc1ccc2cc(C(=O)N3C[C@H](O)CC[C@H]3CCN3CCC(c4c[nH]c5ccccc45)CC3)[nH]c2c1` [Example 39], for which, in assay [1], the inhibition at 0.01 µM was 77%. Further, the inhibition at 0.001 µM in assay [2] amounted to 70%. Moreover, the inhibition at 0.1 µM in assay [3] was found to be 69%; in assay [4], 86%.

For `Cc1ccc2cc(C(=O)N3CCOCCC3CCN3CCC(c4c[nH]c5ccccc45)CC3)[nH]c2c1` (stereo not shown) [Example 43], in assay [1], the inhibition at 0.01 µM was 74%. The inhibition at 0.001 µM in assay [2] was 77%. In addition, the inhibition at 0.1 µM in assay [3] came to 82%; in assay [4] it was 83%.

What is called inhibition is the change of the read-out against control, counted positive when it falls.

The values above are taken from patent publication US8541585B2, “N-acyl cyclic amine derivative or pharmaceutically acceptable salt thereof” (Dainippon Sumitomo Pharma Co., Ltd., priority 2010, dated 2013).
